Experimental data from ChEMBL document CHEMBL1126506, “Thoromboxane A2/endoperoxide receptor antagonists: 1,3-Dioxane and 1,3-dioxolane analogs” (Bioorg Med Chem Lett, 1993).
pIC50, pKd: −log10 of the molar value.

Experiments:
Thromboxane A2 receptor [1] = molecular target: T1, Thromboxane A2 receptor (Homo sapiens, UniProt P21731); assay: In vitro inhibition against TXA2/PGH2 receptor using [3H]-SQ 29,548 as radioligand in human platelet membrane preparation; assay type: cell membranes; conditions: read-out: I50
T1 sequence (P21731 whole entry): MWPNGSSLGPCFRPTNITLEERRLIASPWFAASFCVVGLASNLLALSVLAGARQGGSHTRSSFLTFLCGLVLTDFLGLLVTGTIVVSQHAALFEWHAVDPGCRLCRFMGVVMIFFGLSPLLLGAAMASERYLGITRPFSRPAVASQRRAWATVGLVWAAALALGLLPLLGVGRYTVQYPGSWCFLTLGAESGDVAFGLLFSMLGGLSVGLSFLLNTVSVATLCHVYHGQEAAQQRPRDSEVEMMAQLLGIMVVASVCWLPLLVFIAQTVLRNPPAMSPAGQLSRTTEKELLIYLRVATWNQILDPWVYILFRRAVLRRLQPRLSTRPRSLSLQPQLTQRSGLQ

Thromboxane A2 receptor [2] = molecular target: T1, Thromboxane A2 receptor; assay: In vitro binding affinity was determined for platelet thromboxane receptor in presence of [3H]-SQ 29548
Homo sapiens = species: Homo sapiens; assay: Tested for ability to inhibit arachidonic acid-induced and ADP-induced platelet aggregation of human platelet rich plasma; assay type: functional; conditions: read-out: I50

pIC50 (Thromboxane A2 receptor [1])	pKd (Thromboxane A2 receptor [2])	pIC50 (Homo sapiens)	Compound
8.15			O=C(O)CCc1ccccc1CC1C2CCC(O2)C1c1nc(C(=O)NCCc2ccc(Cl)cc2)co1 (stereo not given)
6.48	8.10		O=C(O)CCc1ccccc1CC1COCOC1c1nc(C(=O)NCCc2ccc(Cl)cc2)co1 (stereo not given)
6.89	7.51		O=C(O)CCc1ccccc1CC1OCOC1c1nc(C(=O)NCCc2ccc(Cl)cc2)co1 (racemic)
5.51	7.35		O=C(O)CCc1ccccc1CC1OCOC1c1nc(C(=O)NCCc2ccc(Cl)cc2)co1 (trans isomer; (+))
6.51	8.09		O=C(O)CCc1ccccc1CC1OCOC1c1nc(C(=O)NCCc2ccc(Cl)cc2)co1 (trans isomer; (-))
		8.15	CCCCCNC(=O)c1coc(C2C3CCC(O3)C2Cc2ccccc2CCC(=O)O)n1 (stereo not given) [BMS-180291]
